Laboratory results taken from PMC11062899, “De novo development of small cyclic peptides that are orally bioavailable” (Nature Chemical Biology, 2023).
Several values for one entry are separate records, joined by “and”; a condition that tells them apart may be missing. Equal values may be shown once. Each block holds one molecule with its values, some of them ahead of it.

How the values were obtained:
porcine pepsin = target: T1, porcine pepsin (Sus scrofa, UniProt P00791); assay: Peptide stability in simulated gastric fluid (SGF); assay type: in vitro ADME; details: for SGF stability, Residual peptide Average / SGF stability, Residual peptide: after 8 h vs 0 h (TIC); for SGF stability, Residual peptide Average: average of R1-R3; for SGF stability, Residual peptide: single replicates R1-R3; for remaining at 8 h: simulated gi fluid, 37 °C, pH 1.2, read-out: Proteolytic stability: SGF (8 h) % remaining
T1 construct: 0.32 g of porcine pepsin (Sigma-Aldrich, P7125) was dissolved under gentle agitation; purchased Sigma-Aldrich P7125
T1 sequence (P00791 60-385): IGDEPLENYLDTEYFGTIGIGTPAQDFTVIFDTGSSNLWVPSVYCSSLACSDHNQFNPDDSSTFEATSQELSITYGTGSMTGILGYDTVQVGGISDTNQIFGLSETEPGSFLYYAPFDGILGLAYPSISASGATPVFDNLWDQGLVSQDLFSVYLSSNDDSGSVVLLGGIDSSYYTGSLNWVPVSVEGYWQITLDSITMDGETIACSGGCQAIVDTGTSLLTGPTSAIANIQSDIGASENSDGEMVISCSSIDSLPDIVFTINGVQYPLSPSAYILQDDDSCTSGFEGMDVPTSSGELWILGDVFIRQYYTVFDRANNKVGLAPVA
How it was run: (§1)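 Peptide from a 1 mM DMSO stock was added to fluid pre-warmed at 37 °C. SGF was pH 1.2 NaCl with porcine pepsin (0.32 g per 100 ml), and SIF was pH 6.8 potassium phosphate with porcine pancreatin (1 g per 100 ml). Supernatant peptide was quantified by LC–MS, with residual expressed as T1/T0.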

[1] = Passive artificial membrane permeability (PAMPA); details: for PAMPA permeability: % permeability: 50 μM, 12–18 h, acceptor concentration relative to equilibrium; for Papp at 50 μM / Permeability% Average / Permeability% R1 / Permeability% R3: PAMPA; for Papp at 50 μM: pH 7.4; for Permeability% Average: average of R1-R3; for Permeability% R1: replicate R1; for Permeability% R1 / Permeability% R3: TIC of top well sample relative to sample at theoretical equilibrium; for Permeability% R3: replicate R3
porcine pancreatin = assay: Peptide stability in simulated intestinal fluid (SIF); assay type: in vitro ADME; details: after 8 h vs 0 h (TIC); for SIF stability, Residual peptide Average: average of R1-R3; for SIF stability, Residual peptide: single replicates R1-R3
How it was run: as §1

[2] = as above; assay type: in vitro ADME, porcine; details: simulated gi fluid; 8 h, 37 °C, pH 6.8; read-out: Proteolytic stability: SIF (8 h) % remaining
How it was run: as §1

rat α-thrombin = target: T2, rat α-thrombin (Rattus norvegicus, UniProt P18292); assay: Protease inhibition, Ki for rat α-thrombin (fluorogenic substrate Z-Gly-Gly-Arg-AMC); assay type: biochemical; details: replicates R1-R3
T2 construct: rat α-thrombin (Molecular Innovations) were used at final concentrations of 2 nM and 3 nM; purchased Molecular Innovations
How it was run: (§2)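 Inhibition was measured as AMC fluorescence from 50 μM substrate, monitored for 30 min at 25 °C, relative to a peptide-free control. Human and rat enzymes were present at 2 nM and 3 nM final, respectively, in 50 mM Tris-HCl pH 7.4, 150 mM NaCl, 10 mM MgCl2, 1 mM CaCl2. Ki derives from fitted IC50 via Cheng–Prusoff.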

human α-thrombin = human α-thrombin (Homo sapiens, UniProt P00734); assay: Protease inhibition, Ki for human α-thrombin (fluorogenic substrate Z-Gly-Gly-Arg-AMC); assay type: biochemical; details: replicates R1-R3
How it was run: as §2

[3] = Metabolic stability in rat liver microsomes (RLMs); details: rat, microsomes
[4] = peptide 1.33E+02 uM, slope of proteolytic substrate cleavage over time
[5] = CL (ul/min/mg protein) R1, RLM CL, replicate R1
[6] = CL (ul/min/mg protein) R2, RLM CL, replicate R2
[7] = CL (ul/min/mg protein) R3, RLM CL, replicate R3
[8] = Half Life (min) R1, RLM metabolic stability, replicate R1, 0-60 min
[9] = Half Life (min) R2, RLM metabolic stability, replicate R2, 0-60 min
[10] = Half Life (min) R3, RLM metabolic stability, replicate R3, 0-60 min
[11] = Metabolic stability: Half life T1/2 (min), RLMs, mean and SD, three measurements
[12] = Metabolic stability: RLM CL (ul/min/mg), RLMs, mean and SD, three measurements

SGF stability, Residual peptide Average (porcine pepsin): 97.08 | SGF stability, Residual peptide (porcine pepsin): 97.29 and 98.54 and 95.42 | remaining at 8 h (porcine pepsin): 97 ± 2% | PAMPA permeability: % permeability [1]: 4.3 ± 1.6% | Papp at 50 μM [1]: 0.275 ×10⁻⁶ cm/s | Permeability% Average [1]: 4.3% | Permeability% R1 [1]: 2.49% | Permeability% R3 [1]: 5.45% | SIF stability, Residual peptide Average (porcine pancreatin): 88.29 | SIF stability, Residual peptide (porcine pancreatin): 90.18 and 82.19 and 92.51 | remaining at 8 h [2]: 88 ± 5% | Rat alpha thrombin inhibition, slope normalized to DMSO (rat α-thrombin; [4]): 14.8 and 14.9 and 15.8 | Rat alpha thrombin inhibition, slope normalized to DMSO (rat α-thrombin; peptide 1.67E+01 uM): 13.6 and 25.5 and 34.3 | Rat alpha thrombin inhibition, slope normalized to DMSO (rat α-thrombin; peptide 2.08E+00 uM): 26.5 and 27.8 and 27.7 | Rat alpha thrombin inhibition, slope normalized to DMSO (rat α-thrombin; peptide 3.33E+01 uM): 22.7 and 27.1 and 25.7 | Rat alpha thrombin inhibition, slope normalized to DMSO (rat α-thrombin; peptide 4.17E+00 uM): 20.6 (2×) and 20.4 | Rat alpha thrombin inhibition, slope normalized to DMSO (rat α-thrombin; peptide 6.67E+01 uM): 19.9 and 22.5 and 21.1 | Rat alpha thrombin inhibition, slope normalized to DMSO (rat α-thrombin; peptide 8.33E+00 uM): 13.5 and 20.1 and 24.1 | Human alpha thrombin inhibition, slope normalized to DMSO (human α-thrombin; peptide 1.02E-03 uM): 99.9 and 93.8 and 93.5 | Human alpha thrombin inhibition, slope normalized to DMSO (human α-thrombin; peptide 1.04E+00 uM): 74.0 and 69.6 and 63.3 | Human alpha thrombin inhibition, slope normalized to DMSO (human α-thrombin; peptide 1.27E-04 uM): 95.9 and 97.1 and 89.9 | Human alpha thrombin inhibition, slope normalized to DMSO (human α-thrombin; peptide 1.30E-01 uM): 97.4 and 88.7 and 84.7 | Human alpha thrombin inhibition, slope normalized to DMSO (human α-thrombin; [4]): 48.0 and 48.9 and 38.9 | Human alpha thrombin inhibition, slope normalized to DMSO (human α-thrombin; peptide 1.63E-02 uM): 100.4 and 97.8 and 90.3 | Human alpha thrombin inhibition, slope normalized to DMSO (human α-thrombin; peptide 1.67E+01 uM): 53.6 and 73.4 and 36.5 | Human alpha thrombin inhibition, slope normalized to DMSO (human α-thrombin; peptide 2.03E-03 uM): 104.9 and 96.2 and 90.3 | Human alpha thrombin inhibition, slope normalized to DMSO (human α-thrombin; peptide 2.08E+00 uM): 55.5 and 68.9 and 56.1 | Human alpha thrombin inhibition, slope normalized to DMSO (human α-thrombin; peptide 2.54E-04 uM): 98.8 and 99.4 and 90.5 | Human alpha thrombin inhibition, slope normalized to DMSO (human α-thrombin; peptide 2.60E-01 uM): 80.8 and 89.0 and 86.0 | Human alpha thrombin inhibition, slope normalized to DMSO (human α-thrombin; peptide 3.18E-05 uM): 84.7 and 96.5 and 92.2 | Human alpha thrombin inhibition, slope normalized to DMSO (human α-thrombin; peptide 3.26E-02 uM): 93.0 and 90.7 and 88.1 | Human alpha thrombin inhibition, slope normalized to DMSO (human α-thrombin; peptide 3.33E+01 uM): 66.3 and 62.6 and 52.3 | Human alpha thrombin inhibition, slope normalized to DMSO (human α-thrombin; peptide 4.07E-03 uM): 103.1 and 97.8 and 89.7 | Human alpha thrombin inhibition, slope normalized to DMSO (human α-thrombin; peptide 4.17E+00 uM): 60.4 and 78.0 and 53.8 | Human alpha thrombin inhibition, slope normalized to DMSO (human α-thrombin; peptide 5.09E-04 uM): 103.6 and 97.9 and 97.0 | Human alpha thrombin inhibition, slope normalized to DMSO (human α-thrombin; peptide 5.21E-01 uM): 81.6 and 82.6 and 73.0 | Human alpha thrombin inhibition, slope normalized to DMSO (human α-thrombin; peptide 6.36E-05 uM): 100.1 and 99.2 and 93.6 | Human alpha thrombin inhibition, slope normalized to DMSO (human α-thrombin; peptide 6.51E-02 uM): 92.5 and 99.9 and 84.8 | Human alpha thrombin inhibition, slope normalized to DMSO (human α-thrombin; peptide 6.67E+01 uM): 54.4 and 57.2 and 52.4 | Human alpha thrombin inhibition, slope normalized to DMSO (human α-thrombin; peptide 8.14E-03 uM): 104.4 and 96.4 and 91.9 | Human alpha thrombin inhibition, slope normalized to DMSO (human α-thrombin; peptide 8.33E+00 uM): 36.8 and 64.2 and 38.3 | microsomal CLint [3, 5]: 73.3 µL/min/mg | microsomal CLint [3, 6]: 121 µL/min/mg | microsomal CLint [3, 7]: 129 µL/min/mg | half-life [3, 8]: 18.9 min | half-life [3, 9]: 11.4 min | half-life [3, 10]: 10.8 min | half-life [3, 11]: 13.7 ± 3.7 min | microsomal CLint [3, 12]: 108 ± 25 µL/min/mg
SMILES: C[C@@H]1NC(=O)[C@@H](NC(=O)c2ccc(Cl)s2)CSCc2cccc(n2)CSCCNC(=O)c2ccc(cc2)CNC1=O [compound 26]

SGF stability, Residual peptide Average (porcine pepsin): 98.89 | SGF stability, Residual peptide (porcine pepsin): 99.89 and 99.67 and 97.09 | remaining at 8 h (porcine pepsin): 99 ± 2% | PAMPA permeability: % permeability [1]: 2.5 ± 1.2% | Papp at 50 μM [1]: 0.151 ×10⁻⁶ cm/s | Permeability% Average [1]: 2.5% | Permeability% R1 [1]: 3.72% | Permeability% R3 [1]: 2.35% | SIF stability, Residual peptide Average (porcine pancreatin): 91.64 | SIF stability, Residual peptide (porcine pancreatin): 89.51 and 84.30 and 101.11 | remaining at 8 h [2]: 92 ± 9% | Rat alpha thrombin inhibition, slope normalized to DMSO (rat α-thrombin; [4]): 3.9 and 4.8 and 10.9 | Rat alpha thrombin inhibition, slope normalized to DMSO (rat α-thrombin; peptide 1.67E+01 uM): 9.1 and 8.9 and 16.0 | Rat alpha thrombin inhibition, slope normalized to DMSO (rat α-thrombin; peptide 2.08E+00 uM): 42.2 and 39.9 and 27.8 | Rat alpha thrombin inhibition, slope normalized to DMSO (rat α-thrombin; peptide 3.33E+01 uM): 5.4 and 4.9 and 14.0 | Rat alpha thrombin inhibition, slope normalized to DMSO (rat α-thrombin; peptide 4.17E+00 uM): 24.5 and 25.5 and 24.4 | Rat alpha thrombin inhibition, slope normalized to DMSO (rat α-thrombin; peptide 6.67E+01 uM): 4.0 and 4.6 and 11.6 | Rat alpha thrombin inhibition, slope normalized to DMSO (rat α-thrombin; peptide 8.33E+00 uM): 18.9 and 18.5 and 19.5 | Human alpha thrombin inhibition, slope normalized to DMSO (human α-thrombin; peptide 1.02E-03 uM): 98.3 and 96.5 and 99.8 | Human alpha thrombin inhibition, slope normalized to DMSO (human α-thrombin; peptide 1.04E+00 uM): 84.1 and 76.8 and 79.3 | Human alpha thrombin inhibition, slope normalized to DMSO (human α-thrombin; peptide 1.27E-04 uM): 100.0 and 98.1 and 101.1 | Human alpha thrombin inhibition, slope normalized to DMSO (human α-thrombin; peptide 1.30E-01 uM): 95.4 and 96.3 and 96.1 | Human alpha thrombin inhibition, slope normalized to DMSO (human α-thrombin; [4]): 7.7 and 17.1 and 13.6 | Human alpha thrombin inhibition, slope normalized to DMSO (human α-thrombin; peptide 1.63E-02 uM): 97.0 and 96.5 and 98.2 | Human alpha thrombin inhibition, slope normalized to DMSO (human α-thrombin; peptide 1.67E+01 uM): 27.2 and 28.7 and 30.2 | Human alpha thrombin inhibition, slope normalized to DMSO (human α-thrombin; peptide 2.03E-03 uM): 100.7 and 96.1 and 100.3 | Human alpha thrombin inhibition, slope normalized to DMSO (human α-thrombin; peptide 2.08E+00 uM): 72.7 and 80.3 and 72.0 | Human alpha thrombin inhibition, slope normalized to DMSO (human α-thrombin; peptide 2.54E-04 uM): 101.2 and 95.7 and 100.6 | Human alpha thrombin inhibition, slope normalized to DMSO (human α-thrombin; peptide 2.60E-01 uM): 93.2 and 89.7 and 91.7 | Human alpha thrombin inhibition, slope normalized to DMSO (human α-thrombin; peptide 3.18E-05 uM): 102.0 and 95.9 and 100.7 | Human alpha thrombin inhibition, slope normalized to DMSO (human α-thrombin; peptide 3.26E-02 uM): 97.3 and 93.9 and 91.1 | Human alpha thrombin inhibition, slope normalized to DMSO (human α-thrombin; peptide 3.33E+01 uM): 17.1 and 15.9 (2×) | Human alpha thrombin inhibition, slope normalized to DMSO (human α-thrombin; peptide 4.07E-03 uM): 99.1 and 96.8 and 105.4 | Human alpha thrombin inhibition, slope normalized to DMSO (human α-thrombin; peptide 4.17E+00 uM): 57.2 and 53.3 and 58.0 | Human alpha thrombin inhibition, slope normalized to DMSO (human α-thrombin; peptide 5.09E-04 uM): 99.5 and 108.3 and 102.0 | Human alpha thrombin inhibition, slope normalized to DMSO (human α-thrombin; peptide 5.21E-01 uM): 89.3 and 86.3 and 89.6 | Human alpha thrombin inhibition, slope normalized to DMSO (human α-thrombin; peptide 6.36E-05 uM): 101.1 and 95.4 and 95.5 | Human alpha thrombin inhibition, slope normalized to DMSO (human α-thrombin; peptide 6.51E-02 uM): 97.1 and 92.8 and 96.9 | Human alpha thrombin inhibition, slope normalized to DMSO (human α-thrombin; peptide 6.67E+01 uM): 14.5 and 13.5 and 16.4 | Human alpha thrombin inhibition, slope normalized to DMSO (human α-thrombin; peptide 8.14E-03 uM): 99.5 and 100.5 and 98.6 | Human alpha thrombin inhibition, slope normalized to DMSO (human α-thrombin; peptide 8.33E+00 uM): 48.2 and 47.8 and 48.5 | microsomal CLint [3, 5]: 48.3 µL/min/mg | microsomal CLint [3, 6]: 57.4 µL/min/mg | microsomal CLint [3, 7]: 60.2 µL/min/mg | half-life [3, 8]: 28.7 min | half-life [3, 9]: 24.2 min | half-life [3, 10]: 23 min | half-life [3, 11]: 25 ± 2 min | microsomal CLint [3, 12]: 55 ± 5 µL/min/mg
SMILES: O=C1NCCSCc2cccc(n2)CSC[C@H](NC(=O)c2ccc(Cl)s2)C(=O)N[C@@H](CO)C(=O)NCc2cccc1c2 [compound 27]
